Consider 27 molecules from ChEMBL document CHEMBL5126665, “A Dimerosesquiterpene and Sesquiterpene Lactones from Artemisia argyi Inhibiting Oncogenic PI3K/AKT Signaling in Melanoma Cells” (J Nat Prod, 2022).

Format in all cases: cell-based
Data set [1] can be described thus: Inhibition of PI3K/AKT signalling pathway in human MM121224 cells stably expressing H2B-mTurquoise, ERK-KTR-mScarlet and FoxO3a-KTR-mNeonGreen fluorophore assessed as AKT activity by high-content screening microscopic analysis.
The subject of data set [2] is MM121224. Put plainly: Inhibition of PI3K/AKT signalling pathway in human MM121224 cells assessed as downregulation of AKT phosphorylation at Ser473 residue by immunostaining based analysis.
Data set [3] deals with MM121224. The data set is described as follows: Inhibition of PI3K/AKT signalling pathway in human MM121224 cells stably expressing H2B-mTurquoise, ERK-KTR-mScarlet and FoxO3a-KTR-mNeonGreen fluorophore assessed as AKT activity at 25 uM by high-content screening microscopic analysis.
The nature of data set [4]: Toxicity against human MM121224 cells at 50 to 200 uM by high-content screening microscopic analysis. Conditions: mm121224, 200 µM, dose 50-200 µM.

SMILES strings stand for the structures. The source made the active and inactive calls. The rule behind the calls is not given here.

For orientation: IC50 means the concentration that gives 50% inhibition. As to `C=C1C(=O)O[C@H]2[C@H]1[C@@H](OC(C)=O)C=C(C)[C@]1(O)C[C@H]3O[C@@]3(C)[C@H]21`, in data set [1], the IC50 was determined as 22.9 µM.

`C=C1C(=O)O[C@H]2[C@H]1CC[C@@](C)(O)[C@]13O[C@H]1[C@H]1O[C@@]1(C)[C@H]23` [ARTECANIN]: the 50% inhibitory concentration (IC50) in data set [1] worked out at 119 µM.

For the molecule `C=C1C(=O)O[C@H]2[C@H]1[C@@H](OC(=O)C(C)CC)C=C(C)[C@]1(O)C[C@@H](O)[C@@](C)(O)[C@H]21` (stereo partly specified), the half-inhibitory concentration (IC50) in data set [1] was found to be 24.6 µM.

Consider `C=C1C(=O)O[C@@H]2[C@H]3C(C)=CC(=O)C3=C(C)C[C@H](OC(=O)CC(C)C)[C@@H]12`, for which, in data set [1], the half-inhibitory concentration (IC50) was found to be 15.3 µM.

In the case of `C=C1C(=O)O[C@H](C2=C(C)[C@H](OC(C)=O)CC2=O)[C@H]1CCC(C)=O`, the half-inhibitory concentration (IC50) in data set [1] was 25.1 µM. Besides, the inhibition entry in the data set with MM121224 [2] was “Active”.

For `C=C1C(=O)O[C@@H]2[C@H]3C(C)=CC(=O)C3=C(C)C[C@H](O)[C@@H]12`, the IC50 in data set [1] is 15.1 µM. Also, the inhibition entry in the data set with MM121224 [2] was “Active”.

For the molecule `C=C1C(=O)O[C@@H]2[C@H]3C(C)=CC(=O)C3=C(C)CC[C@@H]12` [DEHYDROLEUCODIN], the IC50 in data set [1] stood at 23.6 µM.

As for `C=C1C(=O)O[C@@H]2[C@@H]3[C@@]4(C=C[C@@]3(C)[C@]3(C4)C(=O)O[C@@H]4[C@H]5C(C)=CC(=O)C5=C(C)C[C@H](OC(C)=O)[C@H]43)[C@](C)(O)CC[C@@H]12`, the IC50 in data set [1] was determined as 35.7 µM. For the same molecule, the inhibition result with MM121224 [2] is “Active”.

For `C=C1C(=O)O[C@H]2[C@H]1[C@@H](OC(=O)CC(C)C)C=C(C)[C@]1(O)C[C@@H](O)[C@@](C)(O)[C@H]21`, in data set [1], the IC50 was determined as 27.9 µM.

For the molecule `C=C1C(=O)O[C@@H]2[C@H]3C(C)=CC[C@@H](O)[C@]3(C)CC[C@@H]12` [SANTAMARIN], in data set [1], the IC50 is 52.7 µM.

Regarding `C=C1C(=O)O[C@@H]2[C@H]3C(C)=CC(=O)C3=C(C)C[C@H](OC(=O)C=C(C)C)[C@@H]12`, the IC50 in data set [1] was 8.9 µM. For the same molecule, the inhibition result with MM121224 [3] and with MM121224 [2] was “Active” each time. Besides, the Activity result in data set [4] is reported as “Toxic”.

Take `C=C1C(=O)O[C@H]2[C@H]1[C@@H](OC(=O)CC(C)C)CC(C)=C1C[C@H]3O[C@@]3(C)[C@@H]12`: the half-maximal inhibitory concentration (IC50) in data set [1] turned out to be 16.9 µM.

With `C=C1C(=O)O[C@H]2[C@H]1[C@@H](OC(=O)C(C)CC)CC(=C)[C@]1(O)C[C@H]3O[C@@]3(C)[C@H]21` (stereo partly specified), in data set [1], the IC50 was 14.2 µM.

Take `C=C1C(=O)O[C@H]2[C@H]1CC[C@@](C)(O)[C@@]13C=C[C@](C)([C@H]4[C@H](CC(=O)OC)[C@H](C/C=C\CC)C(=O)[C@H]41)[C@H]23`: the concentration for half-maximal inhibition (IC50) in data set [1] is 27.7 µM. For the same molecule, the inhibition result in the data set on MM121224 [2] is “Active”.

Turning to `C=C1C(=O)O[C@@H]2[C@@H]3[C@@]4(C=C[C@@]3(C)[C@@]3(C4)C(=O)O[C@@H]4[C@H]5C(C)=CC(=O)C5=C(C)C[C@H](OC(C)=O)[C@H]43)[C@](C)(O)CC[C@@H]12`, the IC50 in data set [1] was found to be 14.7 µM.

With `C=C1C(=O)O[C@H]2[C@H]1[C@@H](OC(=O)CC(C)C)CC(=C)[C@]1(O)C[C@H]3O[C@@]3(C)[C@H]21`, the 50% inhibitory concentration (IC50) in data set [1] was determined as 14.2 µM.

For the molecule `C=C1C(=O)O[C@H]2[C@H]1[C@@H](OC(C)=O)CC(=C)[C@]1(O)C[C@H]3O[C@@]3(C)[C@H]21`, the IC50 in data set [1] was determined as 46.2 µM.

Regarding `C=C1C(=O)O[C@@H]2C3=C(C)C(=O)C[C@@H](O)[C@]3(C)CC[C@@H]12`, the half-inhibitory concentration (IC50) in data set [1] came to 11.2 µM. Moreover, the inhibition entry in the data set on MM121224 [2] was “Active”.

On to `C=C1C(=O)O[C@H]2[C@H]1CC[C@@](C)(O)[C@@]13O[C@@H]1[C@@H]1O[C@]1(C)[C@H]23`, for which, in data set [1], the IC50 turned out to be 38.4 µM.

`C=C1C(=O)O[C@H]2[C@H]1[C@@H](OC(C)=O)CC(C)=C1C[C@H]3O[C@@]3(C)[C@@H]12`: the half-inhibitory concentration (IC50) in data set [1] was 25.9 µM.

With `C=C1C(=O)O[C@H]2[C@H]1CC[C@@](C)(O)[C@]13C=C[C@@](C)([C@H]21)[C@@]1(C3)C(=O)C[C@]2(C(C)C)C[C@@H]21`, the IC50 in data set [1] stood at 26.5 µM.

On to `C=C1C(=O)O[C@@H]2[C@H]3C(C)=CC(=O)C3=C(C)C[C@H](OC(=O)C(C)CC)[C@@H]12` (stereo partly specified), for which the IC50 in data set [1] worked out at 27.7 µM.

On to `C=C1C(=O)O[C@@H]2[C@H]3C(C)=CC(=O)C3=C(C)C[C@H](OC(=O)/C(C)=C\C)[C@@H]12`, for which the IC50 in data set [1] is 9.8 µM.

In the case of `C=C1C(=O)O[C@H]([C@@H]2C(=O)C=C[C@]2(C)O)[C@H]1CCC(C)=O` [SECOTANAPARTHOLIDE B], the half-maximal inhibitory concentration (IC50) in data set [1] amounted to 22.5 µM.

As for `C=C(C(=O)OC)[C@@H]1CC[C@]2(C)C(=C(C)C(=O)C[C@H]2O)[C@H]1O`, in data set [1], the concentration for half-maximal inhibition (IC50) was 22.1 µM. Besides, the inhibition result with MM121224 [2] was “Active”.

Take `C=C1C(=O)O[C@H]([C@H]2C(=O)C=C[C@@]2(C)O)[C@H]1CCC(C)=O`: in data set [1], the IC50 is 38 µM.

Consider `C=C1C(=O)O[C@@H]2[C@H]3C(C)=CC(=O)C3=C(C)C[C@H](OC(C)=O)[C@@H]12`, for which the IC50 in data set [1] turned out to be 11 µM.
